Reference: US9580426B2, “Compounds that expand hematopoietic stem cells” (Novartis AG, priority 2008, dated 2017)
Counter-ions that a name gives are not always drawn.

Tests used:
[1] = tested on: Primary adult CD34+ human hematopoietic stem cells (HSCs); test: % CD34+ assay: HSC expansion screen, dose response; format: cell-based
Method in brief: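 Human CD34+ cells, chiefly MACS-enriched from G-CSF-mobilized peripheral blood, were grown at 37° C., 5% CO2 in serum-free StemSpan with TPO, IL-6, Flt-3 ligand and SCF (50 ng/mL each), plus compound or DMSO. Cultures were kept at 10^4–5×10^5 cells/mL and assessed by flow cytometry for CD34 expression. EC50 came from a 1 nM–10 μM dose response.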

mPB-derived CD34+ cells = test: Genome-wide transcriptional profiling; format: cell-based, human; conditions: 24 hours
Source text: The two genes that were the most highly repressed by treatment with Example 1 (cytochrome P450 1B1 [CYP1B1] and the aryl hydrocarbon receptor repressor [AHRR]) are transcriptionally regulated by the aryl hydrocarbon receptor (AHR). Therefore, compounds of the invention could be acting as an antagonist of AHR signaling.

mPB-derived CD34+ cell = test: 7 day culture with AHR antagonists, expansion of CD34+ cells; format: cell-based, human; conditions: 7 days
Protocol: To further explore the role of AHR signaling in HSCs two other AHR antagonists (alpha-naphthoflavone and CH-223191) were tested. Both compounds lead to dose dependent increases in the number of CD34^+ cells when cultured with mPB-derived CD34^+ cell for 7 days: inclusion of 1 μM CH223191 afforded a 2.2-fold expansion of CD34^+ cells; 0.75 μM α-naphthoflavone afforded a 1.9-fold expansion of CD34^+ cells while 0.75 μM Example 1 afforded a 3.4-fold expansion of total CD34^+ cells. […] Forty-eight hours following transduction, CD34+GFP^+ cells were purified by cell sorting and the levels of AHR were determined by qPCR. Both AHR targeting shRNAs led to decreases in AHR expression following transduction (81% with sh111 and 51% with sh242). These decreases were not seen in cells lacking GFP or in cells transduced with control virus.

[2] = tested on: CYP1B1 mRNA in mPB-derived CD34+ cells; test: TCDD-mediated CYP1B1 mRNA expression by qPCR; format: cell-based, human; conditions: 3 nM; vehicle 0.01% toluene
Protocol: Further, the ability of Example 1 to block 2,3,7,8-tetrachlorodibenzo-p-dioxin (TCDD, dioxin)-mediated CYP1B1 mRNA expression by qPCR in mPB-derived CD34^+ cells was determined. Treatment with TCDD (3 nM) caused a 4.5-fold increase in the level of CYP1B1 mRNA compared with the vehicle control (0.01% toluene). […] To determine the effects of Example 1 in AHR transcription the ability of Example 1 to inhibit a dioxin-induced AHR dependent luciferase reporter gene assay was tested.

[3] = Water uptake by thermogravimetry after exposure to relative humidity; format: physicochemical; conditions: 80% rh during 24 hours
Protocol: Mesylate salt: 4-(2-(2-(benzo[b]thiophen-3-yl)-9-isopropyl-9H-purin-6-ylamino)ethyl)phenol free base (0.60 g; 1.40 mmoles) are dissolved in 12 ml acetone at 50° C. Methanesulfonic acid (0.137 g; 1.40 mmoles) is added drop wise. The crystallization takes place rapidly. The white suspension is allowed to cool over about 30 minutes with cooling to room temperature. The slurry is stirred for 18 hours at room temperature and filtered. The solid is washed with acetone (6 ml) in three portions and dried first for about 3 hours at 50° C./ca. 10 mbar and then for about 16 hours at 80° C./ca. 10 mbar. […] The water uptake was estimated by thermogravimetry after exposure to relative humidity (80% rh) during 24 hours. A water uptake of 0.4% was observed.

In the case of `Cc1n[nH]c(C)c1CCCNc1nc(-c2csc3ccccc23)nc2c1ncn2C(C)C` [2-(benzo[b]thiophen-3-yl)-N-(3-(3,5-dimethyl-1H-pyrazol-4-yl)propyl)-9-isopropyl-9H-purin-6-amine], the “activity relative to example 1 (less active)” value [1] is reported as about 20 fold, the “down-regulation of 5 genes (most repressed: CYP1B1, AHRR)” value (mPB-derived CD34+ cells; 1 μM) is reported as “none were significantly affected” and the “up-regulation of 5 genes of >50,000 probe sets” value (mPB-derived CD34+ cells) is reported as “induced to some degree”.

With `Cc1ccccc1N=Nc1ccc(NC(=O)c2ccnn2C)c(C)c1` [CH223191, 2-methyl-2H-pyrazole-3-carboxylic acid (2-methyl-4-o-tolylazophenyl)amide] the “expansion of CD34+ cells” value (mPB-derived CD34+ cell; 1 μM) was 2.2 fold.

For `Clc1cc2c(cc1Cl)Oc1cc(Cl)c(Cl)cc1O2` [TCDD, 2,3,7,8-tetrachlorodibenzo-p-dioxin], the “increase in the level of CYP1B1 mRNA compared with vehicle control” value [2] was 4.5 fold.

In the case of `CC(C)n1cnc2c(NCCc3ccc(O)cc3)nc(-c3csc4ccccc34)nc21` [Tosylate salt, 4-(2-(2-(benzo[b]thiophen-3-yl)-9-isopropyl-9H-purin-6-ylamino)ethyl)phenol], the water uptake [3] is reported as 0.4%.

With `O=c1cc(-c2ccccc2)oc2c1ccc1ccccc12` [α-naphthoflavone, alpha-naphthoflavone] the “expansion of CD34+ cells” value (mPB-derived CD34+ cell; 0.75 μM) was 1.9 fold.
